Test system: P12-Ichikawa
Assay: cell viability relative to DMSO control; higher = less cytotoxic
Settings: 48 h
In short: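 Before seeding, each leukemia line was adapted for at least four passages in each medium. NOMO1 or SEM cells (500 cells/well) and P12-Ichikawa cells (1000 cells/well) went into 1536-well plates at 5 μl, then received library compounds in DMSO by pin dosing across 11 threefold concentrations, 47 μM to 0.79 nM. Readout was CellTiter-Glo One luminescence after 48 h at 37°C, and viability is given as a per-plate percentage of DMSO wells, with cell-free wells as background.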

[1] = HPLM + 10% dialyzed FBS, 0.000781 µM
[2] = HPLM + 10% dialyzed FBS, 0.00234 µM
[3] = HPLM + 10% dialyzed FBS, 0.00702 µM
[4] = HPLM + 10% dialyzed FBS, 0.0211 µM
[5] = HPLM + 10% dialyzed FBS, 0.0632 µM
[6] = HPLM + 10% dialyzed FBS, 0.19 µM
[7] = HPLM + 10% dialyzed FBS, 0.569 µM
[8] = HPLM + 10% dialyzed FBS, 1.71 µM
[9] = HPLM + 10% dialyzed FBS, 5.12 µM
[10] = HPLM + 10% dialyzed FBS, 15.4 µM
[11] = HPLM + 10% dialyzed FBS, 46.1 µM
[12] = RPMI 5 mM glucose + 10% FBS, 0.000781 µM
[13] = RPMI 5 mM glucose + 10% FBS, 0.00234 µM
[14] = RPMI 5 mM glucose + 10% FBS, 0.00702 µM
[15] = RPMI 5 mM glucose + 10% FBS, 0.0211 µM
[16] = RPMI 5 mM glucose + 10% FBS, 0.0632 µM
[17] = RPMI 5 mM glucose + 10% FBS, 0.19 µM
[18] = RPMI 5 mM glucose + 10% FBS, 0.569 µM
[19] = RPMI 5 mM glucose + 10% FBS, 1.71 µM
[20] = RPMI 5 mM glucose + 10% FBS, 5.12 µM
[21] = RPMI 5 mM glucose + 10% FBS, 15.4 µM
[22] = RPMI 5 mM glucose + 10% FBS, 46.1 µM
[23] = RPMI 5 mM glucose + 10% dialyzed FBS, 0.000781 µM
[24] = RPMI 5 mM glucose + 10% dialyzed FBS, 0.00234 µM
[25] = RPMI 5 mM glucose + 10% dialyzed FBS, 0.00702 µM
[26] = RPMI 5 mM glucose + 10% dialyzed FBS, 0.0211 µM
[27] = RPMI 5 mM glucose + 10% dialyzed FBS, 0.0632 µM
[28] = RPMI 5 mM glucose + 10% dialyzed FBS, 0.19 µM
[29] = RPMI 5 mM glucose + 10% dialyzed FBS, 0.569 µM
[30] = RPMI 5 mM glucose + 10% dialyzed FBS, 1.71 µM
[31] = RPMI 5 mM glucose + 10% dialyzed FBS, 5.12 µM
[32] = RPMI 5 mM glucose + 10% dialyzed FBS, 15.4 µM
[33] = RPMI 5 mM glucose + 10% dialyzed FBS, 46.1 µM

SMILES | cell viability [1] [%] | cell viability [2] [%] | cell viability [3] [%] | cell viability [4] [%] | cell viability [5] [%] | cell viability [6] [%] | cell viability [7] [%] | cell viability [8] [%] | cell viability [9] [%] | cell viability [10] [%] | cell viability [11] [%] | cell viability [12] [%] | cell viability [13] [%] | cell viability [14] [%] | cell viability [15] [%] | cell viability [16] [%] | cell viability [17] [%] | cell viability [18] [%] | cell viability [19] [%] | cell viability [20] [%] | cell viability [21] [%] | cell viability [22] [%] | cell viability [23] [%] | cell viability [24] [%] | cell viability [25] [%] | cell viability [26] [%] | cell viability [27] [%] | cell viability [28] [%] | cell viability [29] [%] | cell viability [30] [%] | cell viability [31] [%] | cell viability [32] [%] | cell viability [33] [%]
CC(C)[C@]12O[C@H]1[C@@H]3O[C@@]34[C@@]5(C)CC\C6=C(COC6=O)/[C@@H]5C[C@@H]7O[C@]47[C@@H]2O | 97.5 | 9.15 | 6.65 | 7.98 | 9.04 | 8.65 | 9.22 | 8.95 | 8.4 | 6.67 | 4.18 | 102 | 16.6 | 8.24 | 5.66 | 7.99 | 8.04 | 7 | 6.95 | 5.74 | 4.33 | 2.61 | 101 | 10.6 | 8.79 | 7.77 | 9.01 | 8.98 | 9.99 | 9.74 | 9.21 | 6.99 | 5.18
O=C1\C=C(OC2=C(C=CC=C12)C3=CC=CC4=C3SC5=C4C=CC=C5)\N6CCOCC6 | 119 | 125 | 127 | 129 | 137 | 130 | 130 | 131 | 129 | 132 | 121 |  |  |  |  |  |  |  |  |  |  |  |  |  |  |  |  |  |  |  |  |  | 
CCCC[S+](=N)([O-])CCC(N)C(=O)O (stereo not given) | 113 | 124 | 127 | 126 | 132 | 137 | 135 | 139 | 131 | 128 | 6.85 |  |  |  |  |  |  |  |  |  |  |  |  |  |  |  |  |  |  |  |  |  | 
O=C(Nc1cccnc1)N1CCC(Cc2cccc(Oc3ccc(C(F)(F)F)cn3)c2)CC1 | 116 | 107 | 109 | 104 | 110 | 92 | 83.1 | 76.3 | 68.7 | 27.1 | 15.5 | 109 | 117 | 117 | 106 | 118 | 97.6 | 82.2 | 64.2 | 55.6 | 23.5 | 10.4 | 108 | 108 | 113 | 114 | 103 | 88.4 | 81.1 | 62.6 | 50.4 | 29.3 | 13.9
NCCOc1cc(C(=O)Nc2cc(OCCN)c3ccccc3n2)nc(C(=O)Nc2cc(OCCN)c3ccccc3n2)c1 | 44.2 | 13.1 | 12.7 | 12.8 | 14.1 | 12.8 | 13.3 | 9.79 | 7.51 | 21.5 | 61.7 | 113 | 120 | 113 | 19 | 17.4 | 17 | 15.7 | 16 | 16.7 | 24.4 | 68.8 |  |  |  |  |  |  |  |  |  |  | 
CC(C)(Sc1cc(C(C)(C)C)c(O)c(C(C)(C)C)c1)Sc1cc(C(C)(C)C)c(O)c(C(C)(C)C)c1 | 88.5 | 84.4 | 90 | 96.2 | 94.1 | 91 | 95.7 | 89.4 | 97 | 99.7 | 99.9 | 80.2 | 77.9 | 87.2 | 85.6 | 83.9 | 92.8 | 93.7 | 85.4 | 79.2 | 92.8 | 92.8 | 79.2 | 85.3 | 82.3 | 85.6 | 87.8 | 87.6 | 84.7 | 87.2 | 81.3 | 81.2 | 88.4
Cc1noc(N[S+](=O)([O-])c2ccc(N)cc2)c1C | 99.4 | 106 | 104 | 112 | 115 | 109 | 111 | 114 | 109 | 102 | 117 | 85.2 | 102 | 97.6 | 91.2 | 99.8 | 105 | 98.1 | 94.1 | 102 | 96.8 | 100 | 92.4 | 90.5 | 99.5 | 89.7 | 106 | 106 | 108 | 99.3 | 101 | 94.1 | 98.9
CC[C@H](C)C(=O)O[C@H]1C[C@@H](C)\C=C2\C=C/[C@H](C)[C@H](CC[C@@H]3C[C@@H](O)CC(=O)O3)[C@@H]12 | 91.8 | 94.1 | 93.3 | 91.4 | 92.1 | 87.7 | 97.1 | 91.7 | 89.3 | 64.5 | 46.8 | 76.3 | 90.1 | 87.6 | 89.1 | 84.5 | 82.3 | 89.6 | 84.9 | 83.1 | 44.1 | 24 | 80 | 89.8 | 89.5 | 85.5 | 94.6 | 88.3 | 84.4 | 77.9 | 77.4 | 54.8 | 29.7
CN1CCC(CNc2ccc3ncc(-c4cccc(OC(F)(F)F)c4)n3n2)CC1 | 108 | 110 | 97.3 | 109 | 105 | 103 | 108 | 102 | 97.4 | 92.8 | 5.65 | 100 | 101 | 89.4 | 102 | 100 | 102 | 99.8 | 94.7 | 89.1 | 79.7 | 4.48 | 92.7 | 92.9 | 92.2 | 95.4 | 94.7 | 92.4 | 101 | 92.3 | 85.9 | 84.3 | 4.77
O=C(O)c1cccc(-c2noc(-c3ccccc3F)n2)c1 | 99.7 | 106 | 104 | 100 | 102 | 105 | 102 | 98.6 | 101 | 100 | 95.3 | 96.5 | 98.2 | 97.5 | 106 | 106 | 106 | 101 | 98.7 | 90.9 | 93 | 92.7 | 102 | 105 | 94.9 | 103 | 103 | 97.1 | 95.1 | 102 | 90.6 | 102 | 98.7
CN(C)C(=O)[C@H](O)[C@H](Cc1ccccc1)NC(=O)c1cc2cc(Cl)ccc2[nH]1 | 98.8 | 110 | 111 | 114 | 119 | 115 | 122 | 127 | 119 | 80.3 | 43.4 | 95.3 | 112 | 109 | 117 | 119 | 130 | 130 | 130 | 113 | 68.6 | 51.5 | 99.5 | 118 | 118 | 119 | 121 | 131 | 125 | 133 | 127 | 94 | 70
O=C(O)c1cccnc1 | 107 | 107 | 115 | 114 | 106 | 107 | 106 | 96.1 | 68.9 | 47.1 | 35.8 | 113 | 112 | 126 | 113 | 118 | 119 | 117 | 110 | 99.7 | 55.8 | 30.9 | 110 | 112 | 106 | 108 | 108 | 102 | 105 | 98.2 | 76.5 | 33.4 | 9.03
Cc1nnc(C(=O)NC(C)(C)c2nc(C(=O)NCc3ccc(F)cc3)c(O)c(=O)n2C)o1 | 114 | 110 | 104 | 108 | 109 | 103 | 109 | 90.9 | 102 | 102 | 107 | 107 | 110 | 99.3 | 106 | 102 | 104 | 107 | 95.1 | 103 | 103 | 90.7 | 97.8 | 100 | 104 | 103 | 98.7 | 95.5 | 107 | 94.4 | 95.2 | 91.5 | 92.9
CCOc1cc(C(=O)Nc2ccc(Cl)c(-c3nc4ccccc4[nH]3)c2)cc(OCC)c1OCC | 74.3 | 82.5 | 89 | 91 | 91.9 | 92.9 | 98.9 | 96.1 | 92 | 94.1 | 84.6 | 81.6 | 89.8 | 86.7 | 88.4 | 95.8 | 92.9 | 86.7 | 86.5 | 86.6 | 95.4 | 60.8 | 78.9 | 76.7 | 84 | 86.5 | 85.8 | 81.2 | 88.3 | 82.8 | 79.8 | 81.1 | 53.6
Cc1nnc(C(C)C)n1[C@@H]1C[C@H]2CC[C@@H](C1)N2CC[C@H](NC(=O)C1CCC(F)(F)CC1)c1ccccc1 | 88.3 | 99.8 | 107 | 111 | 105 | 102 | 113 | 110 | 101 | 89.1 | 63.8 | 85 | 90.2 | 94.3 | 100 | 95.9 | 103 | 107 | 99.4 | 104 | 92 | 59.2 | 71.4 | 96 | 89.1 | 101 | 94.5 | 105 | 97.4 | 103 | 101 | 81.1 | 48.3
C[C@@H](Cc1cc2c(c(C(N)=O)c1)N(CCCO)CC2)NCCOc1ccccc1OCC(F)(F)F | 91.9 | 115 | 101 | 116 | 113 | 112 | 119 | 114 | 112 | 118 | 110 | 99.4 | 111 | 106 | 130 | 116 | 123 | 115 | 101 | 112 | 117 | 102 | 90.4 | 104 | 103 | 105 | 111 | 109 | 109 | 110 | 99.4 | 109 | 97.5
C/C1=C/C(=C(/CNC(=O)C2=CC(=CC3=C2C=N[N]3C4CCCC4)C5=CC=C(CN6CCOCC6)C=C5)C(=O)N1)C | 113 | 118 | 118 | 117 | 124 | 120 | 114 | 112 | 114 | 106 | 38.6 | 128 | 124 | 120 | 117 | 126 | 123 | 126 | 123 | 115 | 122 | 45.8 |  |  |  |  |  |  |  |  |  |  | 

Reference: the supplement of paper PMC11451515
